Assay [1] has as its target alpha-L-fucosidase (Bos taurus). Put plainly: The compound was tested for the inhibitory activity against alpha-L-Fucosidase in bovine kidney.
The target is the same in assay [2]. The assay is described as above. The source holds these as a separate data set.

For the compound `CC1CC(O)(CN)C(O)C(O)C1O` (stereo not drawn) [1-Aminomethyl-5-methyl-cyclohexane-1,2,3,4-tetraol], the Ki (in general, the equilibrium dissociation constant of an inhibitor or competing ligand from its target) is 3 µM in assay [1] and 2.8 µM in assay [2].

In assay [2], `CC1=CC(N)C(O)C(O)C1O` (stereo not drawn) [6-Amino-4-methyl-cyclohex-4-ene-1,2,3-triol] registered a Ki of 45 µM. That is a double-digit micromolar value.
